# From EP2488183B1, “Composition for inhibiting TGF-beta comprising imidazopurine derivatives” (Korea Institute of Radiological & Medical Sciences, priority 2009, dated 2011)
# What was measured:
# Format in all cases: cell-based, human
# [1] = system: IMR-90 cells; assay: Collagen Sircol assay in TGF-β-treated lung fibrocytes; settings: IMR-90, TGF-β (5 ng/ml), 0, 1, 5 and 10 µM; FIG. 7b
# Description: (§1) IMR-90 cells, human normal lung fibrocytes, were purchased from American Type Culture Collection (ATCC, U.S.A.), and were incubated under 5% CO2 and at a temperature of 37°C for 24 hours in a modified Eagle's medium (MEM) supplemented with 10% FBS serum, 100 units/ml of penicillin, and 100 µg/ml of streptomycin, 1 mM sodium pyruvate, and 0.1 mM non-essential amino acids. Then, two hours before treatment with TGF-β (5ng/ml), compound I was added to the cell culture at a varying concentration (0, 1, 5 and 10 µM) and then, the IMR-90 cells were incubated for 24 hours. Then, as described in Example 2, western blotting was performed to identify inhibition of differentiation of lung fibrocytes by compound I based on expression levels of α-SMA and fibronectin, which are fibrosis marker molecules. […] Also, in extracellular matrix, the amount of collagen, which is one of important materials regarding fibrosis, was measured according to the specification of the manufacturer by using a collagen Sircol assay kit (Biocolor, England).
# [2] = system: IMR-90 cells; assay: Western blotting of fibrosis markers in TGF-β-treated lung fibrocytes; settings: IMR-90, 0, 1, 5 and 10 µM added 2 h before TGF-β (5 ng/ml), 24 h; FIG. 7a
# Description: as §1
# [3] = system: IMR-90 cells; assay: Collagen amount in irradiated lung fibrocytes; settings: IMR-90, 10 µM, 2 h before 4 Gy radiation, 48 h; FIG. 7d
# Description: In order to identify whether compound I inhibits radiation-induced fibrosis, instead of external stimulation by TGF-β radiation that can internally engogenously increase TGF-β was employed to induce fibrosis. IMR-90 cells were incubated as described in (1) above and the IMR-90 cells were inoculated to a 6 cm plate containing a modified Eagle's medium (MEM) supplemented with 10% FBS serum, 100 units/ml of penicillin, and 100 µg/ml of streptomycin, 1 mM sodium pyruvate, and 0.1 mM non-essential amino acids. Then, compound I at a concentration of 10 µM was added thereto and the IMR-90 cells were incubated for 2 hours, and then, 4 Gy radiation was applied thereto. 48 hours later, the IMR-90 cells were collected. Then, fibrosis makers as described in Example 2 were identified from the IMR-90 cells by western blotting.
smiles,measurement,setting,value
"Cc1cn2c(nc3c2c(=O)n(Cc2ccccc2Cl)c(=O)n3C)[nH]1 [compound I, 3-(2-chlorobenzyl)-1,7-dimethyl-1H-imidazo[2,1-f]purine-2,4(3H,8H)-dion]",amount of collagen,[1],concentration-dependently reduced the amount of collagen
same,fibrosis in human lung fibrocytes (expression levels of α-SMA and fibronectin),[2],concentration-dependently decreased fibrosis
same,amount of collagen,[3],reduced to a level similar to that in the no-treatment control group
